The values below come from US12414958B2, “Medicament and use thereof for treating bacterial infections involving biofilm” (Debiopharm International S.A., priority 2019, dated 2025).

The assay has as its system ATCC 43300 MRSA strain. The experiment in a line: In vivo murine model of catheter associated infection, 24 h and 72 h MRSA biofilms. On the set-up: species or system Staphylococcus aureus. The settings on record: for Log10 CFU/g of catheter (D 6) Mean ± SEM / ΔLog10 CFU/g of catheter from (D 1) Mean ± SEM: 5.5-day treatment (D1-D6); for Log10 CFU/g of catheter (D 6) Mean ± SEM / ΔLog10 CFU/g of catheter from (D 1) Mean ± SEM / Log10 CFU/g of catheter (D 8) Mean ± SEM / ΔLog10 CFU/g of catheter from (D 3) Mean ± SEM: BALB/c mice; for Log10 CFU/g of catheter (D 6) Mean ± SEM / Log10 CFU/g of catheter (D 8) Mean ± SEM: doses as in Table 2; for ΔLog10 CFU/g of catheter from (D 1) Mean ± SEM: change from baseline D 1; for CR (%) cure rate / mean reduction of the initial MRSA load: 5.5-day treatment; for CR (%) cure rate: percentage of mice without catheter-associated bacteria; for Log10 CFU/g of catheter (D 8) Mean ± SEM / ΔLog10 CFU/g of catheter from (D 3) Mean ± SEM: 5.5-day treatment (D3-D8); for ΔLog10 CFU/g of catheter from (D 3) Mean ± SEM: change from baseline D 3; for mean reduction of the initial MRSA load: given as positive reduction. The procedure:
Two experimental settings were used in this study to evaluate the treatment efficacies against early (24h) and/or mature (72h) MRSA catheter formed biofilms. Briefly, mice were anaesthetised by an IP injection of about 120 μl a mix of ketamine (50 mg/kg) and xylazine (10 mg/kg) (4 mL ketamine+2 mL xylazine+10 mL saline). Flank on the right side was shaved and then disinfected by 3 consecutive applications of betadine. A cutaneous and then subcutaneous (SC) incisions of 0.2 cm were made under sterile conditions and a 1 cm segment of polyurethane catheter (Ref. No. ES-04730 Arrow international) cut into 2 longitudinal fragments was inserted SC (into the incision and then pushed further under the skin, about 2 cm away from the incision). The inoculation was done simultaneously by placing 50 μl of the bacterial culture onto the catheter (10^6 CFU of ATCC 43300 MRSA strain). The incision was stitched up and disinfected. The day of the infection was referred to as Day0 (D0). To ensure that the study was conducted in sterile conditions from the start to the end of the experiment, non-infected mice (sentinel group) were included. Treatments started either on D1 or D3 post infection, corresponding to early (24h) or more mature (72h) catheter formed biofilms, respectively, and lasted for 5.5 days (D1-D6) or (D3-D8). In both 24 h and 72h biofilm settings, two groups of infected non-treated animals (Vehicle controls) were evaluated for bacterial counts: at baseline (24h or D1 [for 24-h biofilm] and 72h or D3 [for 72-h biofilm] post infection, i.e. time points corresponding to treatments initiations) and at the termination of treatment duration (D6 [for 24-h biofilm] and D8 [for 72-h biofilm] post infection). Post treatment CFUs were counted on D6 or D8 and results were expressed as Log10 CFU/g of catheter (Mean±SEM). The limit of detection was determined as being 1 Log10 CFU/g of catheter. Changes of CFU/g of catheter (Δ Log10) from the baseline (D1 or D3 for 24-h and 72-h biofilm, respectively) and cure rates (corresponding to the percentage of mice without catheter-associated bacteria within a given treatment group) were also calculated. In vivo induction of antibiotic-resistant bacteria was analysed for all tested antibiotics.
Antibiotics doses were selected according to the effective doses in animals, which approximated the therapeutic human equivalent doses (HED) (Table 1).
Mice received antibiotics on D1, D2, D3, D4, D5 and D6 (only one administration at D6) or D3, D4, D5, D6, D7 and D8 (only one administration at D8). All antibiotics were administered BID IP, except Debio 1450 BES and Vancomycin, which were respectively given PO and SC. Daptomycin was tested as a once daily regimen to avoid tolerability issues. The antibiotics daily dosing was performed with a 10-12 hours interval between the two administrations. For combination therapy, antibiotics were administered simultaneously every 10-12 hours (the time required between the injection of the first antibiotic and the injection of the second antibiotic was less than 30 seconds per mouse).
In each sub-study, animals were randomly assigned to the antibiotic therapies or vehicle controls groups. Dose volumes were calculated according to individual body weight of each animal.
After blood collection, animals were sacrificed by cervical dislocation following anaesthesia. Two fragments of catheter per mouse were collected and were used for bacterial enumeration after sonication. Each fragment of catheter was individually washed under aseptic conditions in an Eppendorf tube (3 successive washing steps with 300 μl sterile saline). After the last wash, the catheter was suspended in 1 mL sterile saline, put in an ultrasonic bath (Advantage Lab) for 3 minutes at room temperature before being vigorously vortexed in order to detach all adherent bacteria from the catheter. Several successive dilutions of this suspension (undiluted, 10-2, […]) were cultured onto Chapman agar plates for 48 h at 37° C. […]

`Cc1c(CN(C)C(=O)/C=C/c2cnc3c(c2)CCC(=O)N3COP(=O)(O)O)oc2ccccc12` [Debio 1450, {6-[(1E)-3-{methyl [(3-methyl-1-benzofuran-2-yl)methyl]amino}-3-oxoprop-1-en-1-yl]-2-oxo-3,4-dihydro-1,8-naphthyridin-1 (2H)-yl} methyl dihydrogen phosphate]: for the setting “Biofilm (24 h)”, the “Log10 CFU/g of catheter (D 6) Mean ± SEM” value is listed as 4.31 ± 0.109 Log10 CFU/g of catheter, the “ΔLog10 CFU/g of catheter from (D 1) Mean ± SEM” value (“ΔLog10 CFU/g … (D 1) Mean ± SEM” for short) was −2.35 ± 0.109 Log10 CFU/g of catheter and the “CR (%) cure rate” value is reported as 8%. Further, where the note is “Biofilm (72 h)”, the “Log10 CFU/g of catheter (D 8) Mean ± SEM” value is recorded as 5.75 ± 0.069 Log10 CFU/g of catheter, the “ΔLog10 CFU/g of catheter from (D 3) Mean ± SEM” value (from here on “ΔLog10 CFU/g … (D 3) Mean ± SEM”) is recorded as −1.03 ± 0.069 Log10 CFU/g of catheter and the “CR (%) cure rate” value is 0%.

Consider `CCCCCCCCCC(=O)N[C@@H](Cc1c[nH]c2ccccc12)C(=O)N[C@H](CC(N)=O)C(=O)N[C@@H](CC(=O)O)C(=O)N[C@@H]1C(=O)NCC(=O)N[C@@H](CCCN)C(=O)N[C@@H](CC(=O)O)C(=O)N[C@H](C)C(=O)N[C@@H](CC(=O)O)C(=O)NCC(=O)N[C@H](CO)C(=O)N[C@@H]([C@H](C)CC(=O)O)C(=O)N[C@@H](CC(=O)c2ccccc2N)C(=O)O[C@@H]1C` [Daptomycin], for which, for the setting “Biofilm (24 h)”, the “Log10 CFU/g of catheter (D 6) Mean ± SEM” value is 3.02 ± 0.110 Log10 CFU/g of catheter, the “ΔLog10 CFU/g … (D 1) Mean ± SEM” value is given as −3.64 ± 0.110 Log10 CFU/g of catheter and the “CR (%) cure rate” value is 25%. Where the note is “Biofilm (72 h)”, the “Log10 CFU/g of catheter (D 8) Mean ± SEM” value is listed as 5.42 ± 0.104 Log10 CFU/g of catheter, the “ΔLog10 CFU/g … (D 3) Mean ± SEM” value was −1.37 ± 0.104 Log10 CFU/g of catheter and the “CR (%) cure rate” value worked out at 0%.

As for `CO[C@H]1/C=C/O[C@@]2(C)Oc3c(C)c(O)c4c(O)c(c(/C=N/N5CCN(C)CC5)c(O)c4c3C2=O)NC(=O)/C(C)=C\C=C\[C@H](C)[C@H](O)[C@@H](C)[C@@H](O)[C@@H](C)[C@H](OC(C)=O)[C@@H]1C` [Rifampicin], where the note is “24 h biofilm”, the “mean reduction of the initial MRSA load” value is reported as 4.17±0.072 Log10 CFU/g of catheter. Further, for the setting “72 h biofilm”, the “mean reduction of the initial MRSA load” value is on record as 2.98±0.113 Log10 CFU/g of catheter. Besides, for the setting “Biofilm (24 h)”, the “Log10 CFU/g of catheter (D 6) Mean ± SEM” value was 2.50 ± 0.072 Log10 CFU/g of catheter, the “ΔLog10 CFU/g … (D 1) Mean ± SEM” value is −4.17 ± 0.072 Log10 CFU/g of catheter and the “CR (%) cure rate” value came to 39%. Further, under “Biofilm (72 h)”, the “Log10 CFU/g of catheter (D 8) Mean ± SEM” value is on record as 3.80 ± 0.113 Log10 CFU/g of catheter, the “ΔLog10 CFU/g … (D 3) Mean ± SEM” value was −2.98 ± 0.113 Log10 CFU/g of catheter and the “CR (%) cure rate” value was determined as 8%.
